The record followed here is ChEMBL document CHEMBL1151104, “Mollinedine, a New Alkaloid from Mollinedia costaricensis” (J Nat Prod, 1988).

The species entered for one assay is Rattus norvegicus. Kind of assay: Inhibition of ouabain-induced myocardial arrhythmias in rat. The format is functional, organism-based.
The species entered for another assay is Cavia porcellus. Kind of assay: Inhibition of CaCl2-induced myocardial arrhythmias in guinea pig. The format is functional, organism-based.

Active and inactive are the calls of the source. No cut-off for these calls is given here.

For `c1cc2cc3c(cc2c(Cc2ccc4c(c2)OCO4)n1)OCO3`, the result in the assay listed under Rattus norvegicus and in the assay listed under Cavia porcellus was Active.
